Molecules are shown by their SMILES.

T1 sequence (Q15858 whole entry): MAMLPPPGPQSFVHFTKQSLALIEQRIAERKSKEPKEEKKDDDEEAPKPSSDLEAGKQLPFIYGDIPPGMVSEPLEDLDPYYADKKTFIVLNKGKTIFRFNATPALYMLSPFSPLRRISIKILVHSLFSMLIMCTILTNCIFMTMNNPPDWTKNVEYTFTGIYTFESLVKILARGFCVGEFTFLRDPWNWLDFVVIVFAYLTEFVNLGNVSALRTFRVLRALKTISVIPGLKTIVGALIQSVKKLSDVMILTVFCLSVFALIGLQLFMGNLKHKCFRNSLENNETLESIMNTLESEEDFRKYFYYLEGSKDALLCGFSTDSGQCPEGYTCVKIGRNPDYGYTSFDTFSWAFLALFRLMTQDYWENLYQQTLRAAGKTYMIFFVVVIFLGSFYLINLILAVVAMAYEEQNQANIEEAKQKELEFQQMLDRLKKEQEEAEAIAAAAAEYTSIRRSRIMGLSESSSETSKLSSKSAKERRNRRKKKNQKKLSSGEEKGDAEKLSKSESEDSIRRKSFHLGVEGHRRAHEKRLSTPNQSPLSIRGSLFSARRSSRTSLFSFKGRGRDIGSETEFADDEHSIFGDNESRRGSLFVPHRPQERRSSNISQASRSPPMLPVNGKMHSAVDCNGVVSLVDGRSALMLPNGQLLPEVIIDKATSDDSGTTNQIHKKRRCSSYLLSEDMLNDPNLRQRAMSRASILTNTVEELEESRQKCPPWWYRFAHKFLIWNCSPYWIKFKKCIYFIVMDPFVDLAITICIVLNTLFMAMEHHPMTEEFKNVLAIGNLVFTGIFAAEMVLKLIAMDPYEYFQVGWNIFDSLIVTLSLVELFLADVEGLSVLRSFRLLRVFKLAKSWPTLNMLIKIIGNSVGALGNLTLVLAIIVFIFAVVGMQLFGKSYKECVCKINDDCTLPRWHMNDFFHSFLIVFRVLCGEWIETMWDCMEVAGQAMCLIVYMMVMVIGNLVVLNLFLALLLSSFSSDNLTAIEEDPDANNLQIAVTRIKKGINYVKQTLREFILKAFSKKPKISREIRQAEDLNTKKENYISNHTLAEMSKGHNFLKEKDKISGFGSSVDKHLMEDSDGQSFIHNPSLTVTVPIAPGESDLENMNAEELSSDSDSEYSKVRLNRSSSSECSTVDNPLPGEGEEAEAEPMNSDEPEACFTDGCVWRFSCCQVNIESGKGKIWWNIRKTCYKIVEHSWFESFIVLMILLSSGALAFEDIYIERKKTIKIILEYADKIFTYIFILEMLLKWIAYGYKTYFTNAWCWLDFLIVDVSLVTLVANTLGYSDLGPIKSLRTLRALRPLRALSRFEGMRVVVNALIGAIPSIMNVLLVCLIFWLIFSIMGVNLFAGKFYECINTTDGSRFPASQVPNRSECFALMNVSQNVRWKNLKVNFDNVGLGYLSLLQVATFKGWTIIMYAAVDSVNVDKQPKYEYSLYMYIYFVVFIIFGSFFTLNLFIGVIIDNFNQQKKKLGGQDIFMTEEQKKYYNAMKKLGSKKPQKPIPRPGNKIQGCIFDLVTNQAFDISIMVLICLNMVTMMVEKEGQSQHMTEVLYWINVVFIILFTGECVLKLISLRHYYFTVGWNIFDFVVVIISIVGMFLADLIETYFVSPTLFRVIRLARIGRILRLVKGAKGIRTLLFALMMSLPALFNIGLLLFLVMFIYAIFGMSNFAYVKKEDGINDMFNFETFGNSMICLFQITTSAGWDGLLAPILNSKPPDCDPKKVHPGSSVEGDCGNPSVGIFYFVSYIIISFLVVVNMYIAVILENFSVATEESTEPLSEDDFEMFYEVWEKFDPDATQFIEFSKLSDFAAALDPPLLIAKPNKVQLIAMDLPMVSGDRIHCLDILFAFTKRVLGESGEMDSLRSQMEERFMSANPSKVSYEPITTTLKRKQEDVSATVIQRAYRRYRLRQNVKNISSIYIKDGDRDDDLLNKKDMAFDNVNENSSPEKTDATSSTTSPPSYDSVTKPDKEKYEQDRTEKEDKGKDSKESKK

One assay concerns the target T1, Nav 1.7 (Homo sapiens, UniProt Q15858).
T1 construct: expressed in transfected cells
The experiment in a line: Whole-cell voltage clamp electrophysiology, automated patch clamp (marker c in Table of Examples). In kind it is cell-based. The note with it: marker c = Automated patch clamp data; read-out: Nav 1.7 activity. The text has this:
a.IonWork Quattro data, b=Manual patch clamp data, c=Automated patch clamp data M=Method
Whole-Cell Voltage Clamp Electrophysiology Assay
Patch-clamp electrophysiology is considered the gold standard technique for investigation of ion channel function and pharmacology. Using this method, sodium channel currents can be measured in cells, which stably (or transiently) express the sodium channel subtype of interest. Application of compounds during such experiments provides a functional measure of the activity and potency of compounds affecting the ion channel of interest.
Electrophysiological studies can be performed using automated or manual patch-clamp techniques. Automated patch-clamp instruments suitable for this work include the Ion Works HT (MDS), Ion Works Quattro (MDS), PatchLiner (Nanion technologies), Port-A-Patch (Nanion technologies), QPatch (Sophion) or any other suitable platform.
For recording in automated patch-clamp instruments, cells expressing the voltage-gated sodium channel subtype of interest are dispensed in appropriate chips (plates with more than one recording chambers each containing one or more apertures to generate whole-cell patches), as provided by the manufacturer. Typically, the whole-cell perforated patch configuration is used for probing the pharmacology of compounds in automated patch-clamp electrophysiology on sodium channels. Extracellular and intracellular buffers for such experiments are composed according to the literature, or according to the instructions provided by the manufacturer of the instruments. Test solutions, which contain the compounds to be tested, are applied to the cells expressing the sodium channel of interest by a pipetting system, typically integrated into the robots.
A suitable voltage stimulus protocol is used to activate voltage-gated sodium channel proteins of interest. A typical stimulus protocol may consist of sweeps of sequential voltage pulses starting from a holding potential (i.e. −65 mV), to a more positive and depolarising test pulse potential (i.e. −10 mV) and finally to a more negative and hyperpolarising potential (i.e. −100 mV). According to the biophysics of the voltage-gated ion channel of interest and interest in channel configuration the voltages and durations of the pulses as well as the overall frequency of sweeps applied might vary. Accordingly, a stimulus protocol was designed to assess compounds due to their potential to block NaV1.7 channels primarily in inactivated state. Selectivity over other voltage-gated sodium channel members was assessed by protocols that reflect the native function of the channels (i.e. heart rate or firing of neurons).
In general terms: The patch-clamp technique gives a direct electrical read-out from membranes.
Regarding `CN(c1ccccc1)c1nc(N)nc(-c2noc(C3CC(Oc4ccccc4)C3)n2)n1` (mixture of isomers) [Example 261, 2-N-Methyl-6-[5-(3-phenoxycyclobutyl)-1,2,4-oxadiazol-3-yl]-2-N-phenyl-1,3,5-triazine-2,4-diamine], the IC50 worked out at 1.39 µM.

The assay is the same for the next values; noted with them: marker c: Automated patch clamp data; read-out: Nav 1.7 activity.
As for `CN(c1ccccc1)c1nc(N)nc(-c2noc(C3C[C@H]4CC[C@@H](C3)N4CCC(F)(F)F)n2)n1` (mixture of isomers) [Example 145, N-Methyl-N-phenyl-6-{5-[(1R,3R,5S)-8-(3,3,3-trifluoro-propyl)-8-aza-bicyclo[3.2.1]oct-3-yl]-[1,2,4]oxadiazol-3-yl}-[1,3,5]triazine-2,4-diamine], the IC50 came to 1.14 µM. As for `Cc1ccccc1-c1nc(-c2nc(N)nc(N(C)c3ccccc3)n2)no1` [Example 27, N-Methyl-N-phenyl-6-(5-o-tolyl-[1,2,4]oxadiazol-3-yl)-[1,3,5]triazine-2,4-diamine], the IC50 turned out to be 0.923 µM. For `Cc1cccc(-c2nc(-c3nc(N)nc(N(C)c4ccccc4)n3)no2)c1` [Example 28, N-Methyl-N-phenyl-6-(5-m-tolyl-[1,2,4]oxadiazol-3-yl)-[1,3,5]triazine-2,4-diamine], the IC50 turned out to be 0.955 µM. For the compound `Cc1ccc(-c2nc(-c3nc(N)nc(N(C)c4ccccc4)n3)no2)cc1` [Example 29, N-Methyl-N-phenyl-6-(5-p-tolyl-[1,2,4]oxadiazol-3-yl)-[1,3,5]triazine-2,4-diamine], the IC50 is 1.38 µM. Regarding `CC(C)N(c1ccccc1)c1nc(N)nc(-c2noc(-c3ccco3)n2)n1` [Example 30, 6-(5-Furan-2-yl-[1,2,4]oxadiazol-3-yl)-N-isopropyl-N-phenyl-[1,3,5]triazine-2,4-diamine], the IC50 stood at 0.933 µM. As for `CN(c1ccccc1)c1nc(N)nc(-c2noc(Cc3ccccc3)n2)n1` [Example 31, 6-(5-Benzyl-[1,2,4]oxadiazol-3-yl)-N-methyl-N-phenyl-[1,3,5]triazine-2,4-diamine], the IC50 stood at 0.363 µM. For `Nc1nc(Nc2ccccc2)nc(-c2noc(-c3cc[nH]n3)n2)n1` [Example 40, N-Phenyl-6-[5-(1H-pyrazol-3-yl)-[1,2,4]oxadiazol-3-yl]-[1,3,5]triazine-2,4-diamine], the IC50 is 2.72 µM.

Regarding `CN(c1ccccc1)c1nc(N)nc(-c2noc(-c3ncccc3OCC(F)(F)F)n2)n1` [Example 42, N-Methyl-N-phenyl-6-{5-[3-(2,2,2-trifluoro-ethoxy)-pyridin-2-yl]-[1,2,4]oxadiazol-3-yl}-[1,3,5]triazine-2,4-diamine], the IC50 came to 1.41 µM. With `Cc1cc(-c2nc(-c3nc(N)nc(N(C)c4ccccc4)n3)no2)no1` [Example 44, N-Methyl-6-[5-(5-methyl-isoxazol-3-yl)-[1,2,4]oxadiazol-3-yl]-N-phenyl-[1,3,5]triazine-2,4-diamine], the IC50 amounted to 2.72 µM. With `CN(c1ccccc1)c1nc(N)nc(-c2noc(N3CCOCC3)n2)n1` [Example 45, N-Methyl-6-(5-morpholin-4-yl-[1,2,4]oxadiazol-3-yl)-N-phenyl-[1,3,5]triazine-2,4-diamine], the IC50 was 3.52 µM.

`COc1ccc(-c2nc(-c3nc(N)nc(N(C)c4ccccc4)n3)no2)cn1` [Example 47, 6-[5-(6-Methoxy-pyridin-3-yl)-[1,2,4]oxadiazol-3-yl]-N-methyl-N-phenyl-[1,3,5]triazine-2,4-diamine]: the IC50 came to 1.92 µM. For the compound `Cc1cc(-c2nc(-c3nc(N)nc(N(C)c4ccccc4)n3)no2)oc1C` [Example 49, 6-[5-(4,5-Dimethyl-furan-2-yl)-[1,2,4]oxadiazol-3-yl]-N-methyl-N-phenyl-[1,3,5]triazine-2,4-diamine], the IC50 came to 1.23 µM. Turning to `CN(c1ccccc1)c1nc(N)nc(-c2noc(-c3ncccc3N)n2)n1` [Example 51, 6-[5-(3-Amino-pyridin-2-yl)-[1,2,4]oxadiazol-3-yl]-N-methyl-N-phenyl-[1,3,5]triazine-2,4-diamine], the IC50 turned out to be 3.47 µM. The same measure, in the same setting: the value for `CN(c1ccccc1)c1nc(N)nc(-c2noc(-c3cccnc3N)n2)n1` [Example 53, 6-[5-(2-Amino-pyridin-3-yl)-[1,2,4]oxadiazol-3-yl]-N-methyl-N-phenyl-[1,3,5]triazine-2,4-diamine] was 0.703 µM. Take `CN(c1ccccc1)c1nc(N)nc(-c2noc(-c3ccc(N)nc3)n2)n1` [Example 55, 6-[5-(6-Amino-pyridin-3-yl)-[1,2,4]oxadiazol-3-yl]-N-methyl-N-phenyl-[1,3,5]triazine-2,4-diamine]: the IC50 was 4.91 µM.

Turning to `CN(c1ccccc1)c1nc(N)nc(-c2noc(C3CCCCO3)n2)n1` (centres unmarked) [Example 56, N-Methyl-N-phenyl-6-[5-(tetrahydro-pyran-2-yl)-[1,2,4]oxadiazol-3-yl]-[1,3,5]triazine-2,4-diamine], the IC50 is 4.58 µM. Turning to `CN(c1ccccc1)c1nc(N)nc(-c2noc(C3CCOCC3)n2)n1` [Example 57, N-Methyl-N-phenyl-6-[5-(tetrahydro-pyran-4-yl)-[1,2,4]oxadiazol-3-yl]-[1,3,5]triazine-2,4-diamine], the IC50 amounted to 1.14 µM. Still for that read-out and setting: the result for `Cc1cc(-c2nc(-c3nc(N)nc(N(C)c4ccccc4)n3)no2)n[nH]1` [Example 58, N-Methyl-6-[5-(5-methyl-1H-pyrazol-3-yl)-[1,2,4]oxadiazol-3-yl]-N-phenyl-[1,3,5]triazine-2,4-diamine] reads 0.855 µM. For the compound `CN(c1ccccc1)c1nc(N)nc(-c2noc(-c3c[nH]cn3)n2)n1` [Example 59, 6-[5-(1H-Imidazol-4-yl)-[1,2,4]oxadiazol-3-yl]-N-methyl-N-phenyl-[1,3,5]triazine-2,4-diamine], the IC50 stood at 8.12 µM. Take `CN(c1ccccc1)c1nc(N)nc(-c2noc(-c3ccc[nH]3)n2)n1` [Example 60, N-Methyl-N-phenyl-6-[5-(1H-pyrrol-2-yl)-[1,2,4]oxadiazol-3-yl]-[1,3,5]triazine-2,4-diamine]: the IC50 amounted to 4.91 µM. Take `Cc1ccc(-c2nc(-c3nc(N)nc(N(C)c4ccccc4)n3)no2)s1` [Example 62, N-Methyl-6-[5-(5-methyl-thiophen-2-yl)-[1,2,4]oxadiazol-3-yl]-N-phenyl-[1,3,5]triazine-2,4-diamine]: the IC50 worked out at 1.1 µM. Take `CN(c1ccccc1)c1nc(N)nc(-c2noc(-c3cccc4c3OCC4)n2)n1` [Example 63, 6-[5-(2,3-Dihydro-benzofuran-7-yl)-[1,2,4]oxadiazol-3-yl]-N-methyl-N-phenyl-[1,3,5]triazine-2,4-diamine]: the IC50 was found to be 3.38 µM. Still for that read-out and setting: the result for `CN(c1ccccc1)c1nc(N)nc(-c2noc(-c3cc4ccccc4o3)n2)n1` [Example 64, 6-(5-Benzofuran-2-yl-[1,2,4]oxadiazol-3-yl)-N-methyl-N-phenyl-[1,3,5]triazine-2,4-diamine] reads 1.93 µM. Take `CN(c1ccccc1)c1nc(N)nc(-c2noc(-c3ncc[nH]3)n2)n1` [Example 65, 6-(5-Imidazol-2-yl-[1,2,4]oxadiazol-3-yl)-N-methyl-N-phenyl-[1,3,5]triazine-2,4-diamine]: the IC50 was found to be 5.22 µM. Regarding `CN(c1ccccc1)c1nc(N)nc(-c2noc(C3CCCO3)n2)n1` (centres unmarked) [Example 66, N-Methyl-N-phenyl-6-[5-(tetrahydro-furan-2-yl)-[1,2,4]oxadiazol-3-yl]-[1,3,5]triazine-2,4-diamine], the IC50 turned out to be 1.68 µM.

For the origin of these results see patent US8895733B2 (Novartis AG, priority 2010, dated 2014).
